A short description of series [1]: Maximum solubility of cholest-4-en-3-one oxime in water and in different oils. It is filed as physicochemical.
A short description of series [2]: Stability of cholest-4-en-3-one oxime in different oils (impurities by HPLC UV at 255 nm). Type of series: physicochemical. The note with it: 15 mg/ml, 60° C., 15 days. How it is done:
The stability of cholest-4-en-3-one oxime was tested in 12 different oils. The compound is added to the oil at a concentration of 15 mg/ml in the form of micronized powder, and the mixture is placed in an oven at 60° C. for 15 days. […] The major impurity obtained is cholestenone. Other impurities can also appear, certain of which are known (and known to be stable), whereas other impurities appearing are unknown, and the potential toxicity or stability of which is therefore not known.
The product is considered to be very stable (++, very stable) in a given oil if after the incubation for 15 days in the oven at 60° C., the percentage of the measured total area under the curve of the chromatogram obtained corresponding to peaks of degradation products of cholest-4-en-3-one oxime represents less than 1%, and these are known, stable products. The product is considered stable (+, stable) in an oil if after the 15 days spent in the oven at 60° C., the percentage of the measured total area under the curve of the chromatogram obtained corresponding to peaks of degradation products of cholest-4-en-3-one oxime represents less than 1%, but corresponds to unknown degradation products. The product is considered unstable (−, instable) in an oil if after the 15 days spent in the oven at 60° C., the percentage of the measured total area under the curve of the chromatogram obtained corresponding to peaks of degradation products of cholest-4-en-3-one oxime represents more than 1%.

SMILES strings stand for the structures. ≈ marks a conversion by molar mass, not a printed value. A value given as a limit tells only on which side of the number the result lay.

By solubility is commonly meant how much of the substance goes into solution per volume. Regarding `CC(C)CCC[C@@H](C)[C@H]1CC[C@H]2[C@@H]3CCC4=CC(=NO)CC[C@]4(C)[C@H]3CC[C@]12C` [cholest-4-en-3-one oxime], the solubility in series [1] (castor oil, oil or lipid) was below 15 mg/mL; in series [1] (cotton oil, oil or lipid) it was 28 mg/mL (≈ 70.1 mM); in series [1] (ground nut oil, oil or lipid), below 15 mg/mL; in series [1] (oil or lipid, Mixture of medium-chain triglycerides (ESTASAN ®, MYGLIOL ®)), 45 mg/mL (≈ 113 mM); in series [1] (olive oil, oil or lipid) it was 40 mg/mL (≈ 100 mM); in series [1] (rapeseed oil, oil or lipid) it was below 15 mg/mL. Besides, the solubility was found to be 35 mg/mL (≈ 87.6 mM) in series [1] (sesame oil, oil or lipid); 30 mg/mL (≈ 75.1 mM) in series [1] (soya oil, oil or lipid); 0.001 mg/mL (≈ 0.0025 mM) in series [1] (water). In addition, the stability entry in series [2] (Almond oil) is “− (major instability of the product in the oil tested, with release of more than 1% degradation products, over 2 weeks at 60° C.)”; in series [2] (Caster oil) it was “+ (compound which is stable in the oil tested, with release of less than 1% unknown degradation products, over 2 weeks at 60° C.)”; in series [2] (Corn oil), “− (major instability of the product in the oil tested, with release of more than 1% degradation products, over 2 weeks at 60° C.)”; in series [2] (Cotton oil) it was “++ (compound which is very stable in the oil tested, with release of less than 1% stable known degradation products, over 2 weeks at 60° C.)”; in series [2] (Ground nut oil), “+ (compound which is stable in the oil tested, with release of less than 1% unknown degradation products, over 2 weeks at 60° C.)”; in series [2] (Mixture of medium-chain triglycerides (ESTASAN ®, MYGLIOL ®)), “++ (compound which is very stable in the oil tested, with release of less than 1% stable known degradation products, over 2 weeks at 60° C.)”. The stability result in series [2] (Oleic acid) is “− (major instability of the product in the oil tested, with release of more than 1% degradation products, over 2 weeks at 60° C.)”; in series [2] (Olive oil) it was “++ (compound which is very stable in the oil tested, with release of less than 1% stable known degradation products, over 2 weeks at 60° C.)”; in series [2] (Rapeseed oil) it was “+ (compound which is stable in the oil tested, with release of less than 1% unknown degradation products, over 2 weeks at 60° C.)”; in series [2] (Sesame oil), “++ (compound which is very stable in the oil tested, with release of less than 1% stable known degradation products, over 2 weeks at 60° C.)”; in series [2] (Soya oil), “++ (compound which is very stable in the oil tested, with release of less than 1% stable known degradation products, over 2 weeks at 60° C.)”; in series [2] (Sunflower oil), “− (major instability of the product in the oil tested, with release of more than 1% degradation products, over 2 weeks at 60° C.)”.

For the origin of these results see US20100099652A1, “NOVEL COMPOSITION BASED ON CHOLEST-4-EN-3-ONE OXIME” (TROPHOS, priority 2007, published 2010).
